PubChem BioAssay (NCI)
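Growth conditions: 96-well plates. Treatment: test compound, 48 hours, 5 concentrations. Analysis: linear interpolation between bracketing concentrations; unreached endpoints set to highest concentration. GI50 = concentration required for 50% inhibition of growth. At the TGI there is no net growth.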

Assays:
Test in all cases: growth of human tumour cells (NCI), 48 h
MCF7 breast = system: MCF7 breast
OVCAR-5 ovarian = system: OVCAR-5 ovarian
OVCAR-4 ovarian = system: OVCAR-4 ovarian
TK-10 renal = system: TK-10 renal
MDA-MB-231 breast = system: MDA-MB-231 breast
HCT-15 colon = system: HCT-15 colon
SF-268 CNS = system: SF-268 CNS
HCT-116 colon = system: HCT-116 colon
OVCAR-3 ovarian = system: OVCAR-3 ovarian
SNB-75 CNS = system: SNB-75 CNS
SK-MEL-28 melanoma = system: SK-MEL-28 melanoma
UACC-62 melanoma = system: UACC-62 melanoma
K-562 leukemia = system: K-562 leukemia
CAKI-1 renal = system: CAKI-1 renal
NCI-H226 lung = system: NCI-H226 lung
MDA-MB-435 = system: MDA-MB-435
SF-539 CNS = system: SF-539 CNS
CCRF-CEM leukemia = system: CCRF-CEM leukemia
PC-3 prostate = system: PC-3 prostate
NCI-H460 lung = system: NCI-H460 lung
U251 CNS = system: U251 CNS
786-0 renal = system: 786-0 renal
MOLT-4 leukemia = system: MOLT-4 leukemia
MALME-3M melanoma = system: MALME-3M melanoma
A549 NSCLC = system: A549 NSCLC
HCC-2998 colon = system: HCC-2998 colon
SF-295 CNS = system: SF-295 CNS
HL-60(TB) leukemia = system: HL-60(TB) leukemia
SNB-19 CNS = system: SNB-19 CNS
ACHN renal = system: ACHN renal
NCI-H23 lung = system: NCI-H23 lung
M14 melanoma = system: M14 melanoma
T-47D breast = system: T-47D breast
SW-620 colon = system: SW-620 colon
RXF 393 renal = system: RXF 393 renal
KM12 colon = system: KM12 colon
HOP-62 NSCLC = system: HOP-62 NSCLC
SK-OV-3 ovarian = system: SK-OV-3 ovarian
BT-549 breast = system: BT-549 breast
SK-MEL-2 melanoma = system: SK-MEL-2 melanoma
HOP-92 NSCLC = system: HOP-92 NSCLC
NCI-H522 lung = system: NCI-H522 lung
IGROV1 ovarian = system: IGROV1 ovarian
SR leukemia = system: SR leukemia
HS 578T breast = system: HS 578T breast
SK-MEL-5 melanoma = system: SK-MEL-5 melanoma
HT29 colon = system: HT29 colon
UO-31 renal = system: UO-31 renal
RPMI-8226 leukemia = system: RPMI-8226 leukemia
DU-145 prostate = system: DU-145 prostate
NCI/ADR-RES ovarian = system: NCI/ADR-RES ovarian
UACC-257 melanoma = system: UACC-257 melanoma
OVCAR-8 ovarian = system: OVCAR-8 ovarian
SN12C renal = system: SN12C renal
COLO 205 colon = system: COLO 205 colon
EKVX NSCLC = system: EKVX NSCLC
LOX IMVI melanoma = system: LOX IMVI melanoma

## CC(C)=CCc1c(O)c(CC=C(C)C)c2c(c1O)C(=O)C1=C[C@@H]3C[C@H]4C(C)(C)O[C@@](C/C=C(\C)C(=O)O)(C3=O)[C@@]14O2
MCF7 breast
  GI50: 19 µM
  TGI: > 100 µM
OVCAR-5 ovarian
  GI50: 32.9 µM
  TGI: 98.1 µM
OVCAR-4 ovarian
  GI50: 41.7 µM
  TGI: > 100 µM
TK-10 renal
  GI50: 25.6 µM
  TGI: 50.9 µM
MDA-MB-231 breast
  GI50: 42.1 µM
  TGI: > 100 µM
HCT-15 colon
  GI50: 23.9 µM
  TGI: > 100 µM
SF-268 CNS
  GI50: 26.6 µM
  TGI: > 100 µM
HCT-116 colon
  GI50: 18 µM
  TGI: 34.2 µM
OVCAR-3 ovarian
  GI50: 18.1 µM
  TGI: 34.2 µM
SNB-75 CNS
  GI50: 31.9 µM
  TGI: > 100 µM
SK-MEL-28 melanoma
  GI50: 24.8 µM
  TGI: 69.1 µM
UACC-62 melanoma
  GI50: 19.9 µM
  TGI: 50.8 µM
K-562 leukemia
  GI50: 24 µM
  TGI: > 100 µM
CAKI-1 renal
  GI50: 29.4 µM
  TGI: > 100 µM
NCI-H226 lung
  GI50: 25.4 µM
  TGI: 58.9 µM
MDA-MB-435
  GI50: 23.9 µM
  TGI: 62.9 µM
SF-539 CNS
  GI50: 17.3 µM
  TGI: 41.2 µM
CCRF-CEM leukemia
  GI50: 18.5 µM
  TGI: 76.5 µM
PC-3 prostate
  GI50: 25 µM
  TGI: 64.8 µM
NCI-H460 lung
  GI50: 19.8 µM
  TGI: 44 µM
U251 CNS
  GI50: 17.4 µM
  TGI: 38.5 µM
786-0 renal
  GI50: 18.8 µM
  TGI: 37.3 µM
MOLT-4 leukemia
  GI50: 25.1 µM
  TGI: 93.4 µM
MALME-3M melanoma
  GI50: 18 µM
  TGI: 50.9 µM
A549 NSCLC
  GI50: 38.4 µM
  TGI: > 100 µM
HCC-2998 colon
  GI50: 19.6 µM
  TGI: 40.1 µM
SF-295 CNS
  GI50: 33.9 µM
  TGI: > 100 µM
HL-60(TB) leukemia
  GI50: 21.1 µM
  TGI: 70.3 µM
SNB-19 CNS
  GI50: 30.2 µM
  TGI: 94.4 µM
ACHN renal
  GI50: 29.7 µM
  TGI: > 100 µM
NCI-H23 lung
  GI50: 22.5 µM
  TGI: 69.2 µM
M14 melanoma
  GI50: 19.9 µM
  TGI: 52.3 µM
T-47D breast
  GI50: 23.6 µM
  TGI: 79.3 µM
SW-620 colon
  GI50: 19.9 µM
  TGI: 50.4 µM
RXF 393 renal
  GI50: 21.6 µM
  TGI: 42.2 µM
KM12 colon
  GI50: 21.2 µM
  TGI: 47.1 µM
HOP-62 NSCLC
  GI50: 23.8 µM
  TGI: 58.7 µM
SK-OV-3 ovarian
  GI50: 59.6 µM
  TGI: > 100 µM
BT-549 breast
  GI50: 16.8 µM
  TGI: 33.8 µM
SK-MEL-2 melanoma
  GI50: 19.8 µM
  TGI: 43 µM
HOP-92 NSCLC
  GI50: 19 µM
  TGI: 45 µM
NCI-H522 lung
  GI50: 15.9 µM
  TGI: 36 µM
IGROV1 ovarian
  GI50: 26.7 µM
  TGI: 83.2 µM
SR leukemia
  GI50: 16.1 µM
  TGI: > 100 µM
HS 578T breast
  GI50: 42.6 µM
  TGI: > 100 µM
SK-MEL-5 melanoma
  GI50: 18.8 µM
  TGI: 36.1 µM
HT29 colon
  GI50: 23.7 µM
  TGI: 64.3 µM
UO-31 renal
  GI50: 14.3 µM
  TGI: 31.8 µM
RPMI-8226 leukemia
  GI50: 12.8 µM
  TGI: 50.8 µM
DU-145 prostate
  GI50: 25.9 µM
  TGI: 68 µM
NCI/ADR-RES ovarian
  GI50: 33.3 µM
  TGI: > 100 µM
UACC-257 melanoma
  GI50: 21.6 µM
  TGI: 55 µM
OVCAR-8 ovarian
  GI50: 28.4 µM
  TGI: > 100 µM
SN12C renal
  GI50: 29.4 µM
  TGI: > 100 µM
COLO 205 colon
  GI50: 19.3 µM
  TGI: 45.5 µM
EKVX NSCLC
  GI50: 27.5 µM
  TGI: > 100 µM
LOX IMVI melanoma
  GI50: 14.4 µM
  TGI: 28.6 µM
